“Also recorded” adds a separate entry of the source.
How the values were obtained:
[1] = test system: mature and immature animals; conditions: cited from earlier work
[2] = test system: Sprague-Dawley male rats; test: Place conditioning to 10 mg/kg cocaine at P60 after juvenile drug exposure; assay type: in vivo; conditions: 10 µg/side into MPFCx during conditioning
[3] = test system: Sprague-Dawley male rats; test: Locomotor activity at 60 days old after juvenile ±7-OHDPAT exposure; assay type: in vivo; conditions: juvenile ±7-OHDPAT 0.3 mg/kg P20-P35, vs VEH
Procedure: FIG. 6. Locomotor activity in response to a 10 mg/kg challenge with cocaine on the second day of cocaine conditioning in VEH- and ±7-OHDPAT-treated subjects (n=7-8 animals per group). *P<0.05 comparing the 10 mg/kg cocaine groups.
Juvenile Sprague-Dawley male rats were treated with MPH (2 mg/kg, i.p. twice daily), ±7-OHDPAT (0.3 mg/kg, i.p. twice daily), Naf (0.05, 0.5 and 5 mg/kg; i.p. twice daily) or VEH (i.p. twice daily) between the ages of P20 and P35 (Andersen et al., Nat. Neurosci., 5:13-14 (2002)). […]
To further investigate the functional role of the D3 receptor in juvenile psychostimulant treatment, animals were pre-pubertally treated with the D3-preferring agonist ±7-OHDPAT, the D3 antagonist Naf or a MPH/Naf combination. […] Next, juvenile manipulations of the D3 receptor on place conditioning were assessed and compared with each other. […]

[4] = test system: Sprague-Dawley male rats; test: Place conditioning to 10 mg/kg cocaine at P60 after juvenile drug exposure; assay type: in vivo; conditions: for place conditioning to cocaine-associated environment (pre- vs. post-conditioning): tested at P60, 10 mg/kg cocaine
Procedure: Juvenile Sprague-Dawley male rats were treated with MPH (2 mg/kg, i.p. twice daily), ±7-OHDPAT (0.3 mg/kg, i.p. twice daily), Naf (0.05, 0.5 and 5 mg/kg; i.p. twice daily) or VEH (i.p. twice daily) between the ages of P20 and P35 (Andersen et al., Nat. Neurosci., 5:13-14 (2002)). The MPH dose was selected on the basis of previous studies (see Andersen et al., Nat. Neurosci., 5:13-14 (2002); Bolanos et al., Biol. Psychiatry, 54:1317-1329 (2003); and Mague et al., Biol. Psychiatry, 57:120-125 (2005)), unpublished observations that we find similar behavioral effects if MPH is given i.p. or orally at this dose, and evidence that it approximates a clinically relevant dose in humans based on plasma levels (see Wargin et al., J. Pharmacol. Exp. Ther., 226:382-386 (1983); and Kuczenski, R. & Segal, D. S. J. Neurosci., 22:7264-7271 (2002)). Clinically therapeutic doses of MPH yield plasma levels between 8 and 40 ng/mL (Swanson et al., Behay. Brain Res., 130:73-78 (2002); Teicher et al., Ann. N. Y. Acad. Sci., 1071:313-323 (2006)), with 0.5 mg/kg i.p., achieving plasma levels of 36 ng/mL within 5 min in rats (Berridge et al., Biol. Psychiatry, 60:1111-1120 (2006)). Doses for juvenile exposure to ±7-OHDPAT are based on Neisewander et al., Neuropsychopharmacology, 29:1479-1487 (2004), and cortical microinjections of 10 µg/side were derived from Boulay et al. Prog. Neuropsychopharmacol. Biol. Psychiatry, 24:39-49 (2000). Naf doses below 1 mg/kg have negligible D2 receptor occupancy (Sautel et al., J. Pharmacol. Exp. Ther., 275:1239-1246 (1995)) and are behaviorally effective (Richtand et al., Brain Res., 867:239-242 (2000)). Subjects were weighed daily at 09.00 h and injected with their assigned drug; the second injection was administered 4 h later at 13.00 h. This regimen is designed to match the twice-daily dosing used by children, taking into account the higher metabolic rates of rats (Wargin et al., J. Pharmacol. Exp. Ther., 226:382-386 (1983)). After the second drug administration on P35, the rats received no further treatments until behavioral testing at P60.
Rats treated between P20 and P35 with either Naf (0, 0.05, 0.5 or 5.0 mg/kg; n=7-9), ±7-OHDPAT (0.3 mg/kg; n=9), MPH (2 mg/kg; n=9), or a combination of 2 mg/kg MPH and 0.05 mg/kg Naf (MPH/Naf; n=8) were tested at P60 for place conditioning to 10 mg/kg cocaine. According to standard laboratory methods (Andersen et al., Nat. Neurosci., 5:13-14 (2002); Carlezon, Methods Mol. Med., 84:243-249 (2003)), unbiased place conditioning chambers consisted of two large (24×18×33) side compartments separated by a small (12×18×33 cm) middle compartment. Screening was conducted for 30 min on Day 1. Rats were placed in the middle compartment and allowed to freely explore the apparatus. […] Two days of conditioning (with two sessions per day) occurred on Days 2 and 3 for 60 min (Andersen et al., Nat. Neurosci., 5:13-14 (2002); Carlezon, Methods Mol. Med., 84:243-249 (2003)). During the conditioning sessions, rats received a 1 mL/kg i.p. injection of VEH in the morning (09.00 h) and confined to one side. The rats were then returned to the home cage. Four hours later, rats received 10 mg/kg cocaine and confined to the other side. Sides differed in floor texture, wall colors and lighting, and assignments were counterbalanced. On Day 4, rats were permitted to freely explore the entire apparatus for 30 min in a drug-free state.

[5] = test system: D2 receptor; conditions: Naf doses below 1 mg/kg; cited from earlier work

Row | SMILES | locomotor activity [1] | place conditioning to cocaine after ±7-OHDPAT microinjection into the MPFCx ([2]; MPH-exposed subjects) | place conditioning to cocaine after ±7-OHDPAT microinjection into the MPFCx ([2]; MPH-exposed subjects, listed as ±7 OHDPAT) | place conditioning to cocaine after ±7-OHDPAT microinjection into the MPFCx ([2]; VEH-exposed subjects) | place conditioning to cocaine after ±7-OHDPAT microinjection into the MPFCx ([2]; VEH-exposed subjects, listed as ±7 OHDPAT) | baseline locomotor activity ([3]; 60 days old, P>0.9) | locomotor response to 10 mg/kg cocaine challenge ([3]; second day of cocaine conditioning, P<0.05) | place conditioning to 10 mg/kg cocaine associated environment (pre- vs. post-conditioning) ([4]; juvenile exposure P20-P35: MPH 2 mg/kg, ±7-OHDPAT 0.3 mg/kg, or MPH 2 mg/kg + Naf 0.05 mg/kg, tested at P60) | place conditioning to cocaine-associated environment (pre- vs. post-conditioning) ([4]; juvenile Naf 0.05 mg/kg i.p. twice daily P20-P35) | place conditioning to cocaine-associated environment (pre- vs. post-conditioning) ([4]; juvenile Naf 0.5 mg/kg i.p. twice daily P20-P35) | place conditioning to cocaine-associated environment (pre- vs. post-conditioning) ([4]; juvenile Naf 5.0 mg/kg i.p. twice daily P20-P35) | D2 receptor occupancy [5]
1 | CCCN(CCC)C1CCc2ccc(O)cc2C1 (racemic) [±7-OHDPAT, ±7-hydroxy-N,N-di-n-propyl-2-aminotetralin] | inhibit locomotor activity | reversing the aversion to cocaine; also recorded: produced a place preference to cocaine | significant preference for cocaine-associated environments | no greater effect | significant preference for cocaine-associated environments | did not differ from VEH control animals | significantly reduced | Place aversion; also recorded: aversion to the cocaine-associated environment | – | – | – | –
2 | CCCCN1CCCC1CNC(=O)c1cc(C#N)c2ccccc2c1OC (stereo not shown) [Naf, Nafadotride] | – | – | – | – | – | – | – | – | significant preference | significant preference | did not form such a preference | negligible
3 | CCCN1CCO[C@@H]2c3cc(O)ccc3OC[C@H]21 [PD 128907] | inhibit locomotor activity | – | – | – | – | – | – | – | – | – | – | –

Reference: patent publication US20110224256A1, “T[…] THE TREATMENT OF PSYCHIATRIC DISORDERS” (priority 2008, published 2011)
